Molecular target: T1, histamine-3 receptor (Rattus norvegicus, UniProt Q9QYN8)
T1 construct: from tissue; host or cells: male Sprague-Dawley rat brain cortex membranes
Test: Histamine-3 receptor binding, (3H)-N-α-methylhistamine displacement in rat cortical membranes
Details: male Sprague-Dawley rat brain cortical membranes; (3H)-N-α-methylhistamine ~0.6 nM; 30 minutes at 25° C.; Cheng-Prusoff
Description: Briefly, male Sprague-Dawley rat brain cortices were homogenized (1 g tissue/10 mL buffer) in 50 mM Tris-HCl/5 mM EDTA containing protease inhibitor cocktail (Calbiochem) using a polytron set at 20,500 rpm. Homogenates were centrifuged for 20 minutes at 40,000×g. The supernatant was decanted, and pellets were weighed. The pellet was resuspended by polytron homogenization in 40 mL 50 mM Tris-HCl/5 mM EDTA with protease inhibitors and centrifuged for 20 minutes at 40,000×g. […] Test compounds were dissolved in DMSO to provide 20 mM solution, serially diluted and then added to the incubation mixtures prior to initiating the incubation assay by addition of the membranes. Thioperamide (3 μM) was used to determine nonspecific binding. Binding incubations were conducted for 30 minutes at 25° C. and terminated by addition of 2 mL of ice cold 50 mM Tris-HCl (pH 7.7) and filtration through 0.3% polyethylenimine-soaked Unifilter plates (Packard). These filters were washed 4 additional times with 2 mL of ice-cold 50 mM Tris-HCl and dried for 1 hour. Radioactivity was determined using liquid scintillation counting techniques. Results were analyzed by Hill transformation and Ki values were determined using the Cheng-Prusoff equation.

T1 sequence (Q9QYN8 whole entry): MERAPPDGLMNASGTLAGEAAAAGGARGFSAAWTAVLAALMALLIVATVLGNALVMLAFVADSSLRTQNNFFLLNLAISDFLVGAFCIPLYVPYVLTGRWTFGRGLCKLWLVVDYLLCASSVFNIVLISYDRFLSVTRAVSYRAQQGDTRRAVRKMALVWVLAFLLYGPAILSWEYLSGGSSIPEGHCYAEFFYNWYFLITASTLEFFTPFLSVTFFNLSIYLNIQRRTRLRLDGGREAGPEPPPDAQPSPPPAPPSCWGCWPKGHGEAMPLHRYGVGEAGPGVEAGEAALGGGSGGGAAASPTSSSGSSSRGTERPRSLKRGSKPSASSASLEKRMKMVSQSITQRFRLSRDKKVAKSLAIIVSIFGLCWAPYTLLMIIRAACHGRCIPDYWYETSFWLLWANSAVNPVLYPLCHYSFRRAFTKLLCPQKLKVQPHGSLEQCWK

How did the Ki turn out when `O=C(c1ccc(OCCCN2CC[C@@H](NS(=O)(=O)c3ccc(F)c(Cl)c3)C2)cc1)C1CC1` [Example 65, 3-chloro-N-((3R)-1-{3-[4-(cyclopropylcarbonyl)phenoxy]propyl}pyrrolidinyl)-4-fluorobenzenesulfonamide] was run?
The Ki was 0.005 µM.

`Cn1cnc(S(=O)(=O)N[C@@H]2CCN(CCCOc3ccc(-c4ccccn4)cc3)C2)c1` [Example 105, 1-methyl-N-((3R)-1-{3-[4-(2-pyridinyl)phenoxy]propyl}pyrrolidinyl)-1 H-imidazole-4-sulfonamide] was tested. Which Ki did it give?
The Ki was 0.725 µM.

Which Ki does the source give for `N#Cc1ccc(C(=O)N[C@@H]2CCN(CCCOc3ccc(-c4ccc(C#N)cc4)cc3)C2)cc1` [Example 140, 4-cyano-N-((3R)-1-{3-[(4′-cyano[1,1′-biphenyl]-4-yl)oxy]propyl}pyrrolidinyl)benzamide] here?
The Ki was 0.22 µM.

Which Ki does the source give for `Cc1ccc(S(=O)(=O)N[C@@H]2CCN(CCCOc3ccc(-c4ccc(C#N)cc4)cc3)C2)cc1Cl` [Example 43, 3-chloro-N-((3R)-1-{3-[(4′-cyano[1,1′-biphenyl]-4-yl)oxy]propyl}pyrrolidinyl)-4-methylbenzenesulfonamide] here?
Its Ki is 0.037 µM.

Which Ki does the source give for `CC(=O)Nc1ccc(S(=O)(=O)N[C@@H]2CCN(CCCOc3ccc(-c4ccc(C#N)cc4)cc3)C2)cc1` [Example 19, N-(4-{[((3R)-1-{3-[(4′-cyano[1,1′-biphenyl]-4-yl)oxy]propyl}pyrrolidinyl)amino]sulfonyl}phenyl)acetamide] here?
The Ki was 0.0038 µM.

With `O=C(c1ccc(OCCCN2CC[C@@H](NS(=O)(=O)c3ccc(Cl)c(Cl)c3)C2)cc1)C1CC1` [Example 97, 3,4-dichloro-N-((3R)-1-{3-[4-(cyclopropylcarbonyl)phenoxy]propyl}pyrrolidinyl)benzenesulfonamide] as the compound, how does the Ki read?
The Ki was 0.0067 µM.

`N#Cc1ccc(-c2ccc(OCCCN3CC[C@@H](NC(=O)N4CCCC4)C3)cc2)cc1` [Example 136] was tested. Which Ki did it give?
Its Ki is 0.215 µM.

For `N#Cc1ccc(-c2ccc(OCCCN3CC[C@@H](NS(=O)(=O)c4cccc(F)c4)C3)cc2)cc1` [Example 49], which Ki is on record?
The Ki was 0.013 µM.

`CN(C(=O)CC(C)(C)C)[C@@H]1CCN(CCCOc2ccc(-c3ccc(C#N)cc3)cc2)C1` [Example 112] was tested. Which Ki did it give?
The Ki was 0.013 µM.

With `Cc1c(S(=O)(=O)N[C@@H]2CCN(CCCOc3ccc(C(=O)C4CC4)cc3)C2)sc2ccc(Cl)cc12` [Example 82, 5-chloro-N-((3R)-1-{3-[4-(cyclopropylcarbonyl)phenoxy]propyl}pyrrolidinyl)-3-methyl-1-benzothiophene-2-sulfonamide] as the compound, how does the Ki read?
The Ki was 0.021 µM.

For `Cc1cccc(S(=O)(=O)N[C@@H]2CCN(CCCOc3ccc(C(=O)C4CC4)cc3)C2)c1` [Example 91, N-((3R)-1-{3-[4-(cyclopropylcarbonyl)phenoxy]propyl}pyrrolidinyl)-3-methylbenzenesulfonamide], which Ki is on record?
Its Ki is 0.0028 µM.

For `CC(C)(C)CC(=O)N[C@@H]1CCN(CCCOc2ccc(-c3ccc(C#N)cc3)cc2)C1` [Example 131], which Ki is on record?
The Ki was 0.051 µM.

`CN(C(=O)N1CCOCC1)[C@@H]1CCN(CCCOc2ccc(-c3ccc(C#N)cc3)cc2)C1` [Example 118] was tested. Which Ki did it give?
Its Ki is 0.0057 µM.

Which Ki does the source give for `N#Cc1cccc(S(=O)(=O)N[C@@H]2CCN(CCCOc3ccc(-c4ccccn4)cc3)C2)c1` [Example 104, 3-cyano-N-((3R)-1-{3-[4-(2-pyridinyl)phenoxy]propyl}pyrrolidinyl)benzenesulfonamide] here?
Its Ki is 0.173 µM.

Which Ki does the source give for `N#Cc1ccc(-c2ccc(OCCCN3CC[C@@H](NC(=O)N4CCOCC4)C3)cc2)cc1` [Example 138] here?
The Ki was 0.118 µM.

Which Ki does the source give for `N#Cc1ccc(-c2ccc(OCCCN3CC[C@@H](NC(=O)c4ccco4)C3)cc2)cc1` [Example 142] here?
The Ki was 0.321 µM.

`O=C(c1ccc(OCCCN2CC[C@@H](NS(=O)(=O)c3ccccc3)C2)cc1)C1CC1` [Example 55, N-((3R)-1-{3-[4-(cyclopropylcarbonyl)phenoxy]propyl}pyrrolidinyl)benzenesulfonamide] was tested. Which Ki did it give?
The Ki was 0.0029 µM.

For `N#Cc1ccc(-c2ccc(OCCCN3CC[C@@H](NS(=O)(=O)c4ccc(F)cc4)C3)cc2)cc1` [Example 17], which Ki is on record?
Its Ki is 0.013 µM.

With `CC(=O)c1ccc(OCCCN2CC[C@@H](NS(=O)(=O)c3cccc(F)c3)C2)cc1` [Example 72, N-{(3R)-1-[3-(4-acetylphenoxy)propyl]pyrrolidinyl}-3-fluorobenzenesulfonamide] as the compound, how does the Ki read?
The Ki was 0.0079 µM.

For `N#Cc1ccc(-c2ccc(OCCCN3CC[C@@H](NC(=O)c4ccc(F)cc4)C3)cc2)cc1` [Example 139], which Ki is on record?
The Ki was 0.288 µM.

For `N#Cc1ccc(-c2ccc(OCCCN3CC[C@@H](NS(=O)(=O)c4ccc(Cl)c(Cl)c4)C3)cc2)cc1` [Example 54, 3,4-dichloro-N-((3R)-1-{3-[(4′-cyano[1,1′-biphenyl]-4-yl)oxy]propyl}pyrrolidinyl)benzenesulfonamide], which Ki is on record?
Its Ki is 0.098 µM.

Which Ki does the source give for `CCC(C)(C)OC(=O)N(C)[C@@H]1CCN(CCCOc2ccc(-c3ccc(C#N)cc3)cc2)C1` [Example 114, tert-pentyl (3R)-1-{3-[(4′-cyano[1,1′-biphenyl]-4-yl)oxy]propyl}pyrrolidinyl(methyl)carbamate] here?
The Ki was 0.065 µM.

With `CN(C(=O)c1csc(-c2cccnc2)n1)[C@@H]1CCN(CCCOc2ccc(-c3ccc(C#N)cc3)cc2)C1` [Example 123] as the compound, how does the Ki read?
Its Ki is 0.0056 µM.

With `CCCCOc1ccc(S(=O)(=O)N[C@@H]2CCN(CCCOc3ccc(C(=O)C4CC4)cc3)C2)cc1` [Example 85, 4-butoxy-N-((3R)-1-{3-[4-(cyclopropylcarbonyl)phenoxy]propyl}pyrrolidinyl)benzenesulfonamide] as the compound, how does the Ki read?
The Ki was 0.0053 µM.

How did the Ki turn out when `O=C(c1ccc(OCCCN2CC[C@@H](NS(=O)(=O)C=Cc3ccccc3)C2)cc1)C1CC1` [Example 88, N-((3R)-1-{3-[4-(cyclopropylcarbonyl)phenoxy]propyl}pyrrolidinyl)-2-phenylethenesulfonamide] was run?
The Ki was 0.0068 µM.

For `N#Cc1ccc(-c2ccc(OCCCN3CC[C@@H](NS(=O)(=O)c4cccc5cccnc45)C3)cc2)cc1` [Example 40], which Ki is on record?
Its Ki is 0.051 µM.

For `N#Cc1ccc(-c2ccc(OCCCN3CC[C@@H](NS(=O)(=O)c4cccc(C#N)c4)C3)cc2)cc1` [Example 34, 3-cyano-N-((3R)-1-{3-[(4′-cyano[1,1′-biphenyl]-4-yl)oxy]propyl}pyrrolidinyl)benzenesulfonamide], which Ki is on record?
The Ki was 0.011 µM.

With `O=C(c1ccc(OCCCN2CC[C@@H](NS(=O)(=O)c3cccs3)C2)cc1)C1CC1` [Example 81, N-((3R)-1-{3-[4-(cyclopropylcarbonyl)phenoxy]propyl}pyrrolidinyl)-2-thiophenesulfonamide] as the compound, how does the Ki read?
Its Ki is 0.005 µM.

Which Ki does the source give for `CC(C)(C)c1ccc(S(=O)(=O)N[C@@H]2CCN(CCCOc3ccc(-c4ccc(C#N)cc4)cc3)C2)cc1` [Example 21, 4-tert-butyl-N-((3R)-1-{3-[(4′-cyano[1,1′-biphenyl]-4-yl)oxy]propyl}pyrrolidinyl)benzenesulfonamide] here?
Its Ki is 0.022 µM.

How did the Ki turn out when `COc1ccc(S(=O)(=O)N[C@@H]2CCN(CCCOc3ccc(C(=O)C4CC4)cc3)C2)cc1` [Example 59, N-((3R)-1-{3-[4-(cyclopropylcarbonyl)phenoxy]propyl}pyrrolidinyl)-4-methoxybenzenesulfonamide] was run?
The Ki was 0.003 µM.

With `CN(C(=O)c1ccc(F)cc1)[C@@H]1CCN(CCCOc2ccc(-c3ccc(C#N)cc3)cc2)C1` [Example 119] as the compound, how does the Ki read?
The Ki was 0.0077 µM.

Which Ki does the source give for `Cc1cc(C#N)ccc1-c1ccc(OCCCN2CC[C@@H](N(C)C)C2)cc1` [Example 165, 4′-{3-[(3R)-3-(dimethylamino)-1-pyrrolidinyl]propoxy}-2-methyl-1,1′-biphenyl-4-carbonitrile] here?
The Ki was 0.017 µM.

For `N#Cc1ccc(S(=O)(=O)N[C@@H]2CCN(CCCOc3ccc(C(=O)C4CC4)cc3)C2)cc1` [Example 11, 4-cyano-N-((3R)-1-{3-[4-(cyclopropylcarbonyl)phenoxy]propyl}pyrrolidinyl)benzenesulfonamide], which Ki is on record?
Its Ki is 0.004 µM.

With `CN(C)S(=O)(=O)N(C)[C@@H]1CCN(CCCOc2ccc(-c3ccc(C#N)cc3)cc2)C1` [Example 124] as the compound, how does the Ki read?
The Ki was 0.0029 µM.

With `O=C(c1ccc(OCCCN2CC[C@@H](NS(=O)(=O)c3ccc(Cl)cc3)C2)cc1)C1CC1` [Example 58, 4-chloro-N-((3R)-1-{3-[4-(cyclopropylcarbonyl)phenoxy]propyl}pyrrolidinyl)benzenesulfonamide] as the compound, how does the Ki read?
Its Ki is 0.0039 µM.

For `CC(=O)c1ccc(OCCCN2CC[C@@H](NC(=O)C3CC3)C2)cc1` [Example 1, N-{(3R)-1-[3-(4-acetylphenoxy)propyl]pyrrolidinyl}cyclopropanecarboxamide], which Ki is on record?
The Ki was 0.105 µM.

`CC(C)c1ccc(S(=O)(=O)N[C@@H]2CCN(CCCOc3ccc(-c4ccccn4)cc3)C2)cc1` [Example 102, 4-isopropyl-N-((3R)-1-{3-[4-(2-pyridinyl)phenoxy]propyl}pyrrolidinyl)benzenesulfonamide] was tested. Which Ki did it give?
Its Ki is 0.112 µM.

For `COc1cc(-c2ccc(C#N)cc2)ccc1OCCCN1CC[C@@H](N(C)C)C1` [Example 173, 4′-{3-[(3R)-3-(dimethylamino)-1-pyrrolidinyl]propoxy}-3′-methoxy-1,1′-biphenyl-4-carbonitrile], which Ki is on record?
The Ki was 0.027 µM.

With `CC(C)c1ccc(S(=O)(=O)N[C@@H]2CCN(CCCOc3ccc(-c4ccc(C#N)cc4)cc3)C2)cc1` [Example 28] as the compound, how does the Ki read?
The Ki was 0.016 µM.

`CC(=O)Nc1nc(C)c(S(=O)(=O)N[C@@H]2CCN(CCCOc3ccc(-c4ccc(C#N)cc4)cc3)C2)s1` [Example 39, N-(5-{[((3R)-1-{3-[(4′-cyano[1,1′-biphenyl]-4-yl)oxy]propyl}pyrrolidinyl)amino]sulfonyl}-4-methyl-1,3-thiazol-2-yl)acetamide] was tested. Which Ki did it give?
The Ki was 0.0076 µM.

Which Ki does the source give for `N#Cc1ccc(-c2ccc(OCCCN3CC[C@@H](NS(=O)(=O)c4ccc(F)cc4F)C3)cc2)cc1` [Example 51] here?
The Ki was 0.0093 µM.

— US6620839B2, “1,3-disubstituted and 1,3,3-trisubstituted pyrrolidines as histamine-3 receptor ligands and their therapeutic applications” (Abbott Laboratories, priority 2000, dated 2003)
